Read-outs that look alike come from different tables or passages of the source.
What was measured:
Panc1 (G12D) = experiment: CCK-8 cell proliferation assay, Panc1 cells; assay type: cell-based, human; conditions: for IC50: Homo sapiens, PANC-1, Panc1 cells, KRAS-G12D, CCK-8; for selectivity index (SI): Panc1 (G12D) over wild-type cells, fold
Source text: (§1) It has been reported that Panc1 is a KRAS-G12D-mutated human pancreatic cell and that A549 is a KRAS WT cell; meanwhile, HCT116 cells carry the KRAS-G13D mutation. Therefore, we used these cell lines to analyze the compounds’ anticancer activity and selectivity.

HCT116 (G13D) = experiment: CCK-8 cell proliferation assay, HCT116 cells; assay type: cell-based; conditions: Homo sapiens, HCT-116, KRAS-G13D
Source text: as §1

A549 (WT) = experiment: CCK-8 cell proliferation assay, A549 cells; assay type: cell-based; conditions: Homo sapiens, KRAS wild-type
Source text: as §1

Panc-1 = conditions: Figure 1; cited from earlier work
CT26 = tested on: CT26; parameters: method as in PMID 35276423; conditions: Figure 1; cited from earlier work
AsPc-1 [1] = conditions: Figure 1, cited from earlier work
ASPC-1 [2] = experiment: Cell proliferation assay, ASPC-1 cells; assay type: cell-based; conditions: Homo sapiens, ASPC1, KRAS-G12D, antiproliferative
Description: (§2) After we obtained 26a and 26b, cell proliferation experiments were conducted using cell lines carrying KRAS-G12D mutations, and the results are shown in Table 2. […] In the future, more types of linkers can be designed to adjust the lipophilic–hydrophilic balance coefficient of the molecule to optimize its membrane permeability and protein degradation ability. In addition, it should be acknowledged that only two cancer cell lines were selected for testing in this experiment, which is insufficient to comprehensively evaluate these PROTACs. This is also one of the limitations of this experiment.

AGS (G12D) = experiment: CCK-8 cell proliferation assay, AGS cells; assay type: cell-based; conditions: Homo sapiens, KRAS-G12D, antiproliferative
Description: as §1, §2

KRAS-G12D = KRAS-G12D (Homo sapiens, UniProt P01116, G12D); experiment: KRAS-G12D enzyme inhibition assay (GTPase activity assay)
KC = tested on: KC; parameters: method as in PMID 35075146; conditions: Figure 1; cited from earlier work
tumor = tested on: tumor; parameters: method as in PMID 38197882; conditions: subcutaneous administration once a day for 22 days; cited from earlier work
AGS = conditions: Figure 1; cited from earlier work
Panc 04.03 = conditions: Figure 1; cited from earlier work
[3] = KRAS-G12D inhibition IC50, enzymatic inhibition

Chain of KRAS-G12D (P01116 1-188 isoform P01116-2 G12D): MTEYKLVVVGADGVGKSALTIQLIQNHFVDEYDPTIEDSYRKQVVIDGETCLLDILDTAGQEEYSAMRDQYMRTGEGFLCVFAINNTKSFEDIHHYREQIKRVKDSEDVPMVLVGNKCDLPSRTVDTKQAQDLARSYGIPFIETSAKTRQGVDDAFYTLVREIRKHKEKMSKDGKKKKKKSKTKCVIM

With `CN1CCCN(c2nc3c(c(N4CCNCC4(C)C)n2)CCN(C(=O)c2ccc(F)c4ccccc24)C3)CC1` [Compound 10e, (4-(2,2-Dimethylpiperazin-1-yl)-2-(4-methyl-1,4-diazepan-1-yl)-5,8-dihydropyrido[3,4-d]pyrimidin-7(6H)-yl)(4-fluoronaphthalen-1-yl)methanone] the IC50 (Panc1 (G12D)) was > 20 µM, the IC50 (HCT116 (G13D)) was 11.9 ± 1.59 µM and the IC50 (A549 (WT)) was 12.8 ± 1.84 µM.

In the case of `CCN1CCC[C@H]1CNc1nc(NC(=O)c2cccc3ccccc23)cc(N2CCNCC2)n1` [Compound 10j, (S)-N-(2-(((1-Ethylpyrrolidin-2-yl)methyl)amino)-6-(piperazin-1-yl)pyrimidin-4-yl)-1-naphthamide], the IC50 (Panc1 (G12D)) is reported as 5.96 ± 0.64 µM, the IC50 (HCT116 (G13D)) is reported as 14.5 ± 1.22 µM and the IC50 (A549 (WT)) is reported as > 20 µM.

In the case of `COc1cccc(C(F)(F)F)c1-c1cc2c(N3CC4CCC(C3)N4)ncnc2s1` [KD-8], the IC50 (Panc-1) is listed as 2300 nM and the IC50 (CT26) is listed as 2000 nM.

In the case of `N#Cc1c(N)sc2c(F)ccc(-c3c(C(F)(F)F)cc4c(N5CC6CCC(C5)N6)nc(OC[C@@]56CCCN5C[C@H](F)C6)nc4c3F)c12` [ERAS-5024], the IC50 (AsPc-1 [1]; 3D, CTG) is listed as 4 nM.

With `CN1CCCN(c2nc3c(c(N4CCNCC4CO)n2)CCN(C(=O)c2ccc(F)c4ccccc24)C3)CC1` (centres unmarked) [Compound 10d, (4-Fluoronaphthalen-1-yl)(4-(2-(hydroxymethyl)piperazin-1-yl)-2-(4-methyl-1,4-diazepan-1-yl)-5,8-dihydropyrido[3,4-d]pyrimidin-7(6H)-yl)methanone] the IC50 (Panc1 (G12D)) was > 20 µM, the IC50 (HCT116 (G13D)) was > 20 µM and the IC50 (A549 (WT)) was 7.48 ± 0.19 µM.

Work on `C#Cc1c(F)ccc2cc(O)cc(-c3ncc4c(N5C[C@H]6CC[C@@H](C5)N6)nc(N5CCCN(CCCCCC(=O)N[C@H](C(=O)N6C[C@H](O)C[C@H]6C(=O)N[C@@H](C)c6ccc(-c7scnc7C)cc6)C(C)(C)C)CC5)nc4c3F)c12` [Compound 26b, (2S,4R)-1-((S)-2-(6-(4-(4-((1R,5S)-3,8-Diazabicyclo[3.2.1]octan-3-yl)-7-(8-ethynyl-7-fluoro-3-hydroxynaphthalen-1-yl)-8-fluoropyrido[4,3-d]pyrimidin-2-yl)-1,4-diazepan-1-yl)hexanamido)-3,3-dimethylbutanoyl)-4-hydroxy-N-((S)-1-(4-(4-methylthiazol-5-yl)phenyl)ethyl)pyrrolidine-2-carboxamide] yielded an IC50 (ASPC-1 [2]) of 5.09 ± 0.89 µM.

`O=C(c1ccc(F)c2ccccc12)N1CCc2c(nc(N3CCN4CCC3CC4)nc2N2CCN3CCC2CC3)C1` [Compound 10g, (2,4-Di(1,4-diazabicyclo[3.2.2]nonan-4-yl)-5,8-dihydropyrido[3,4-d]pyrimidin-7(6H)-yl)(4-fluoronaphthalen-1-yl)methanone] showed an IC50 (Panc1 (G12D)) of 5.1 ± 0.32 µM, an IC50 (HCT116 (G13D)) of 7.12 ± 0.45 µM and an IC50 (A549 (WT)) of 12.9 ± 0.38 µM.

With `CN1CCCN(c2nc3c(c(N4CCNCC4)n2)CCN(C(=O)c2ccc(F)c4ccccc24)C3)CC1` [Compound 10b, (4-Fluoronaphthalen-1-yl)(2-(4-methyl-1,4-diazepan-1-yl)-4-(piperazin-1-yl)-5,8-dihydropyrido[3,4-d]pyrimidin-7(6H)-yl)methanone] the IC50 (Panc1 (G12D)) was 5.87 ± 0.37 µM, the IC50 (HCT116 (G13D)) was 11.2 ± 0.94 µM and the IC50 (A549 (WT)) was 7.89 ± 0.17 µM.

In the case of `CN1CCCN(c2nc3c(c(N4[C@@H]5CC[C@H]4CNC5)n2)CCN(C(=O)c2ccc(F)c4ccccc24)C3)CC1` [Compound 10c, (4-((1R,5S)-3,8-Diazabicyclo[3.2.1]octan-8-yl)-2-(4-methyl-1,4-diazepan-1-yl)-5,8-dihydropyrido[3,4-d]pyrimidin-7(6H)-yl)(4-fluoronaphthalen-1-yl)methanone], the IC50 (AGS (G12D)) is reported as 3.4 ± 0.25 µM, the IC50 (Panc1 (G12D)) is reported as 1.4 ± 0.19 µM and the “selectivity index (SI)” value (Panc1 (G12D)) is reported as 4.9. For the same compound, the IC50 (HCT116 (G13D)) was 5.13 ± 0.4 µM, the IC50 (A549 (WT)) was 6.88 ± 0.19 µM and the IC50 (KRAS-G12D; [3]) was > 10000 nM.

For `Cc1cccc2cccc(N3CCc4c(nc(OC[C@@H]5CCCN5C)nc4N4CC5CCC(C4)N5)C3)c12` [TH-Z835], the IC50 (Panc-1) is listed as < 2000 nM and the IC50 (KC) is listed as < 500 nM.

In the case of `CN1CCCN(c2nc3c(c(N4CC(N)C4)n2)CCN(C(=O)c2ccc(F)c4ccccc24)C3)CC1` [Compound 10a, (4-(3-Aminoazetidin-1-yl)-2-(4-methyl-1,4-diazepan-1-yl)-5,8-dihydropyrido[3,4-d]pyrimidin-7(6H)-yl)(4-fluoronaphthalen-1-yl)methanone], the IC50 (Panc1 (G12D)) is reported as 6.17 ± 0.2 µM, the IC50 (HCT116 (G13D)) is reported as 12.6 ± 1.01 µM and the IC50 (A549 (WT)) is reported as > 20 µM.

In the case of `CCc1c(F)ccc2cc(O)cc(-c3ncc4c(N5CC6CCC(C5)N6)nc(OC[C@@H]5CCCN5CCCCOCC(=O)N[C@H](C(=O)N5C[C@H](O)C[C@H]5C(=O)N[C@@H](C)c5ccc(-c6scnc6C)cc5)C(C)(C)C)nc4c3F)c12` [Compound 8o], the tumor inhibition rate (tumor) is given as 68.6%, the IC50 (AGS) is given as 31 nM and the IC50 (AsPc-1 [1]) is given as 60 nM.

For `CN1CCCN(c2nc3c(c(N4CCNCC4CO)n2)CCN(Cc2ccccc2)C3)CC1` (centres unmarked) [Compound 10h, (1-(7-Benzyl-2-(4-methyl-1,4-diazepan-1-yl)-5,6,7,8-tetrahydropyrido [3,4-d]pyrimidin-4-yl)piperazin-2-yl)methanol], the IC50 (Panc1 (G12D)) was > 20 µM, the IC50 (HCT116 (G13D)) was > 20 µM and the IC50 (A549 (WT)) was > 20 µM.

In the case of `C#Cc1c(F)ccc2cc(O)cc(-c3ncc4c(N5C[C@H]6CC[C@@H](C5)N6)nc(N5CCCN(CCOCCNc6cccc7c6C(=O)N(C6CCC(=O)NC6=O)C7=O)CC5)nc4c3F)c12` (stereo partly drawn) [Compound 26a, 4-((2-(2-(4-(4-((1R,5S)-3,8-Diazabicyclo[3.2.1]octan-3-yl)-7-(8-ethynyl-7-fluoro-3-hydroxynaphthalen-1-yl)-8-fluoropyrido[4,3-d]pyrimidin-2-yl)-1,4-diazepan-1-yl)ethoxy)ethyl)amino)-2-(2,6-dioxopiperidin-3-yl)isoindoline-1,3-dione], the IC50 (AGS (G12D)) is reported as ~3 µM and the IC50 (ASPC-1 [2]) is reported as > 10 µM.

With `CN1CCCN(c2nc3c(c(N4CCCN(C)CC4)n2)CCN(C(=O)c2ccc(F)c4ccccc24)C3)CC1` [Compound 10f, (2,4-Bis(4-methyl-1,4-diazepan-1-yl)-5,8-dihydropyrido[3,4-d]pyrimidin-7(6H)-yl)(4-fluoronaphthalen-1-yl)methanone] the IC50 (Panc1 (G12D)) was 3.48 ± 0.22 µM, the “selectivity index (SI)” value (Panc1 (G12D)) was 5.7 and the IC50 (HCT116 (G13D)) was 10.1 ± 0.31 µM. The IC50 (A549 (WT)) was > 20 µM.

Work on `Cc1cccc2cccc(N3CCc4c(nc(N5CCCN(C)CC5)nc4N4C[C@H]5CC[C@@H](C4)N5)C3)c12` [Compound 10i, 4-((1R,5S)-3,8-Diazabicyclo[3.2.1]octan-3-yl)-2-(4-methyl-1,4-diazepan-1-yl)-7-(8-methylnaphthalen-1-yl)-5,6,7,8-tetrahydropyrido[3,4-d]pyrimidine] yielded an IC50 (Panc1 (G12D)) of 3.92 ± 0.58 µM, an IC50 (HCT116 (G13D)) of 4.51 ± 0.21 µM and an IC50 (A549 (WT)) of 5.5 ± 1.35 µM.

`C#Cc1c(F)ccc2cc(O)cc(-c3ncc4c(N5CC6CCC(C5)N6)nc(OC[C@@]56CCCN5C[C@H](F)C6)nc4c3F)c12` [MRTX1133, reference compound] showed an IC50 (AGS (G12D)) of 1.46 ± 0.18 µM, an IC50 (Panc1 (G12D)) of 0.39 ± 0.05 µM and an IC50 (HCT116 (G13D)) of 12.6 ± 0.47 µM. The IC50 (A549 (WT)) was 12.7 ± 0.98 µM, the IC50 (ASPC-1 [2]) was < 0.1 µM and the tumor inhibition rate (tumor) was 89.1%. The IC50 (AGS) was 6 nM and the IC50 (Panc 04.03) was 10 nM.

With `C#Cc1c(F)ccc2cc(O)cc(-c3ncc4c(N5C[C@H]6CC[C@@H](C5)N6)nc(N5CCCN(C)CC5)nc4c3F)c12` [Compound 10k, 4-(4-((1R,5S)-3,8-Diazabicyclo[3.2.1]octan-3-yl)-8-fluoro-2-(4-methyl-1,4-diazepan-1-yl)pyrido[4,3-d]pyrimidin-7-yl)-5-ethynyl-6-fluoronaphthalen-2-ol] the IC50 (AGS (G12D)) was 2.22 ± 0.53 µM, the IC50 (Panc1 (G12D)) was 11.5 ± 0.41 µM and the IC50 (HCT116 (G13D)) was 7.87 ± 0.16 µM. For the same compound, the IC50 (A549 (WT)) was 14.2 ± 2.15 µM, the IC50 (KRAS-G12D; [3]) was 9 nM and the IC50 (KRAS-G12D; KRAS-G12D inhibitory activity IC50 (nM), Table S1) was 9.3 nM.

Source: article PMC12114952, “Design, Synthesis, Anticancer Evaluation and Molecular Docking of Pyrimidine, Pyrido[4,3-d]pyrimidine and 5,6,7,8-Tetrahydropyrido[3,4-d]pyrimidine Derivatives as Novel KRAS-G12D Inhibitors and PROTACs” (Pharmaceuticals, 2025)
